Source: paper PMC4193772, “Dual Effects of Alpha-Arbutin on Monophenolase and Diphenolase Activities of Mushroom Tyrosinase” (PLoS ONE, 2014)

How the values were obtained:
mushroom tyrosinase [1] = system: T1, mushroom tyrosinase; assay: dopachrome formation at […] nm, diphenolase activity, Lineweaver-Burk; assay type: biochemical; details: no α-arbutin, 6.67 µg/mL enzyme, 50 mM phosphate pH 6.8, 30°C, air-saturated; apparent Km
T1 construct: gene PPO3

mushroom tyrosinase [2] = biological target: T1, mushroom tyrosinase; assay: dopachrome formation at […] nm, monophenolase activity; assay type: biochemical; details: 0.5 mM L-tyrosine, 20 µg/mL enzyme, 50 mM phosphate pH 6.8, 30°C, air-saturated, proposed suicide substrate

Row | SMILES | Km (mushroom tyrosinase [1]) [mM] | IC50 (mushroom tyrosinase [2]) [mM]
1 | N[C@@H](Cc1ccc(O)c(O)c1)C(=O)O [L-Dopa] | 3.92 | –
2 | OC[C@H]1O[C@H](Oc2ccc(O)cc2)[C@H](O)[C@@H](O)[C@@H]1O [α-arbutin] | – | 4.5
